{
  "source": "patent US6054437A",
  "about": "“Method for inducing death of neoplastic cells using piperazine derivatives” (Hitachi Chemical Research Center, Inc., priority 1997, dated 2000)",
  "type_in_all_cases": "cell-based, human",
  "key": {"LS-174T (colon)": {"tested_on": "LS-174T (colon)", "experiment": "Cancer cell survival assay, LS-174T", "conditions": "seven days, alone", "description": "Cell survival was assayed in cultured tumor cells. From 500-1000 cells per well were plated in 24-welled culture dishes and exposed to drug for seven days. After drug exposure, a computerized cell imaging technique was utilized to ascertain the number of viable cells remaining in each culture. From the data, survival curves were plotted and a ED50 (drug concentration that permits 50% cell survival) were calculated.\nThe cancer cell survival assay is an important additional in vitro assay to assess the anti-neoplastic activity of compounds as the cells are given a prolonged exposure (seven days) to the drug. FIGS. 9-16 show the effect of increasing the dose of NCO-700 on the survival of a number of cancer cell lines. […] In the figures, the vertical axis is the object area, which is the number of surviving cancer cells calculated by a computer."}, "DU-145 (prostate)": {"tested_on": "DU-145 (prostate)", "experiment": "Cancer cell death assay, NCO-700 versus Calpain inhibitor 1", "description": "Cell death was measured quantitatively by the release of a marker intracellular enzyme, lactate dehydrogenase (LDH), from damaged or killed cells. LDH released into the extracellular fluid, was measured 24 hours after drug exposure to cancer cells and the enzyme activity was determined by the method of Decker et al. (J. Immunolog Methods 15:61-99, 1988).\nBased on Experiment 1 above, the anti-cancer activity of NCO-700 and Calpain inhibitor 1 (N-acetyl-leu-leu-norleucinal, C20 H37 N3 O4) was tested in cancer cell death assays of human cancer cell line DU-145."}, "KB-V-1 (resistant)": {"tested_on": "KB-V-1 (resistant)", "experiment": "Cell survival assay with vinblastine, resistant cells", "conditions": "for IC50: Homo sapiens, KB-V1", "description": "where the effect of NCO-700 to enhance cancer cell killing by vinblastine was measured.\nIn the first two in vitro assays, the drug accumulation assay and the cell survival assay, a human pharyngeal carcinoma cell line (KB-V-1) which is highly resistant to anticancer drugs was used. This cell line was developed by Drs. Ira Pastan and Michael Gottesman of the National Cancer Institute, by step-wise selection in colchicine of drug-resistant cells. The control cancer cell line (KB-3), from which the resistant cell lines were derived, is sensitive to anticancer drugs. The resistant KB-V-1 cell line is approximately 275 times more resistant to vinblastine than the sensitive KB-3 line and has a greatly amplified mdr gene which generates the observed resistance.\nThe cell survival experiments shown above were performed by plating KB-3 (sensitive) and KB-V-1 (resistant) cells in 32 mm well plastic dishes at a cell density of 300-500 cells per well. Vinblastine and NCO-700 were added 16 hours after the initial cell plating. After 10 days of incubation at 37°, cell colonies were stained and counted."}},
  "note": "“Also recorded” adds a separate entry of the source. Counter-ions that a name gives are not always drawn. Like-named read-outs stand apart in the source and are kept apart here.",
  "data": [
    {"smiles": "CCOC(=O)[C@@H]1O[C@H]1C(=O)N[C@@H](CC(C)C)C(=O)N1CCN(Cc2ccc(OC)c(OC)c2OC)CC1", "note": "[NCO-700, Bis[ethyl (2R,3R)-3-[(S)-3-methyl-1-[4-(2,3,4-trimethoxyphenylmethyl)piperazin-1-ylcarbonyl]butylcarbamoyl]oxirane-2-carboxylate] Sulfate]", "values": [
      {"measurement": "anti-neoplastic activity (cell survival)", "setting": "LS-174T (colon)", "result": "significant anti-neoplastic activity"},
      {"measurement": "potency relative to Calpain inhibitor 1", "setting": "DU-145 (prostate); DU-145, 100 μM", "result": "~10", "unit": "fold"},
      {"measurement": "anti-cancer activity compared with Calpain inhibitor 1", "setting": "DU-145 (prostate); DU-145, FIG. 33", "result": "clearly superior to the other inhibitor"},
      {"measurement": "IC50", "setting": "KB-V-1 (resistant); KB-V-1, + 25 μM NCO-700, read-out: vinblastine to kill 50% of cells", "result": 0.148, "unit": "µg/mL"},
      {"measurement": "IC50", "setting": "KB-V-1 (resistant); KB-V-1, + 30 μM NCO-700, read-out: level of vinblastine needed to kill 50% of the tumor cells", "result": 0.16, "unit": "µg/mL"},
      {"measurement": "enhancement of killing of resistant cells by vinblastine", "setting": "KB-V-1 (resistant); drug-resistant cells, with vinblastine", "result": "enhanced killing of the drug-resistant cells; also recorded: dramatic effect; also recorded: highly significant increase in the killing of these cancer cells"}
    ]}
  ]
}
